Source: ChEMBL document CHEMBL1201862, “PubChem BioAssay data set” (2004)
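Growth conditions: 96-well plates. Treatment: test compound, 48 hours, 5 concentrations. Analysis: linear interpolation between bracketing concentrations; unreached endpoints set to highest concentration. Abbreviation: GI50, concentration required for 50% inhibition of growth.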 The source made the active and inactive calls. Rule as the data show it: active = GI50 up to about 1.1 µM and inactive = higher.

Assays:
Assay in all cases: NCI tumour cell line growth inhibition, 48 h
[1] = system: 786-0
[2] = system: A549
[3] = system: ACHN
[4] = system: CAKI-1
[5] = system: CCRF-CEM
[6] = system: COLO 205
[7] = system: DLD-1
[8] = system: DMS-114
[9] = system: DMS-273
[10] = system: EKVX
[11] = system: HCC 2998
[12] = system: HCT-116
[13] = system: HCT-15
[14] = system: HL-60
[15] = system: HOP-18
[16] = system: HOP-62
[17] = system: HOP-92
[18] = system: HT-29
[19] = system: IGROV-1
[20] = system: K562
[21] = system: KM-20L2
[22] = system: KM12
[23] = system: LOX IMVI
[24] = system: LXFL 529
[25] = system: M14
[26] = system: M19-MEL
[27] = system: MOLT-4
[28] = system: Malme-3M
[29] = system: NCI-H226
[30] = system: NCI-H23
[31] = system: NCI-H460
[32] = system: NCI-H522
[33] = system: OVCAR-3
[34] = system: OVCAR-4
[35] = system: OVCAR-8
[36] = system: RPMI-8226
[37] = system: RXF 393
[38] = system: SF-268
[39] = system: SF-295
[40] = system: SF-539
[41] = system: SK-MEL-28
[42] = system: SK-MEL-2
[43] = system: SK-MEL-5
[44] = system: SK-OV-3
[45] = system: SN12C
[46] = system: SNB-19
[47] = system: SNB-75
[48] = system: SNB-78
[49] = system: SR
[50] = system: SW-620
[51] = system: TK-10
[52] = system: U-251
[53] = system: UACC-257
[54] = system: UACC-62
[55] = system: UO-31
[56] = system: XF498
[57] = system: A498
[58] = system: OVCAR-5
[59] = system: BT-549
[60] = system: DU-145
[61] = system: Hs-578T
[62] = system: MCF7
[63] = system: MDA-MB-231
[64] = system: MDA-N
[65] = system: NCI/ADR-RES
[66] = system: PC-3
[67] = system: T47D

For `COc1cc2cc3c4c(cc(OC)c(OC)c4c2cc1OC)CCN3C(=O)CCC(=O)NCCCN(C)C`, the GI50 [1] was 78 µM (inactive), the GI50 [2] was > 100 µM (inactive) and the GI50 [3] was > 100 µM (inactive). For the same molecule, the GI50 [4] was > 100 µM (inactive), the GI50 [5] was 29.2 µM (inactive) and the GI50 [6] was 32.6 µM (inactive). For the same molecule, the GI50 [7] was 16.9 µM (inactive), the GI50 [8] was 27.8 µM (inactive) and the GI50 [9] was 73.1 µM (inactive). The GI50 [10] was 72.1 µM (inactive), the GI50 [11] was > 100 µM (inactive) and the GI50 [12] was 43.1 µM (inactive). The GI50 [13] was > 100 µM, the GI50 [14] was 21.7 µM (inactive) and the GI50 [15] was > 100 µM (inactive). The GI50 [16] was 50.7 µM (inactive), the GI50 [17] was 10 µM (inactive) and the GI50 [18] was 22.6 µM (inactive). The GI50 [19] was > 100 µM (inactive), the GI50 [20] was 33.6 µM (inactive) and the GI50 [21] was 24.4 µM (inactive). For the same molecule, the GI50 [22] was 67.1 µM (inactive), the GI50 [23] was 14.3 µM (inactive) and the GI50 [24] was 61 µM (inactive). The GI50 [25] was 17.6 µM (inactive), the GI50 [26] was 22.8 µM (inactive) and the GI50 [27] was 58.9 µM (inactive). The GI50 [28] was 64.7 µM (inactive), the GI50 [29] was 66.8 µM (inactive) and the GI50 [30] was > 100 µM (inactive). The GI50 [31] was 33.1 µM (inactive), the GI50 [32] was 21.8 µM (inactive) and the GI50 [33] was > 100 µM (inactive). For the same molecule, the GI50 [34] was > 100 µM (inactive), the GI50 [35] was > 100 µM (inactive) and the GI50 [36] was 38.5 µM (inactive). For the same molecule, the GI50 [37] was > 100 µM (inactive), the GI50 [38] was > 100 µM (inactive) and the GI50 [39] was 37 µM (inactive). For the same molecule, the GI50 [40] was 18.8 µM (inactive), the GI50 [41] was 38.4 µM (inactive) and the GI50 [42] was 20.1 µM (inactive). For the same molecule, the GI50 [43] was 14.7 µM (inactive), the GI50 [44] was 46.2 µM (inactive) and the GI50 [45] was > 100 µM (inactive). The GI50 [46] was > 100 µM (inactive), the GI50 [47] was 10.3 µM (inactive) and the GI50 [48] was > 100 µM (inactive). For the same molecule, the GI50 [49] was 25.2 µM (inactive), the GI50 [50] was 54 µM (inactive) and the GI50 [51] was > 100 µM (inactive). The GI50 [52] was 41.9 µM (inactive), the GI50 [53] was > 100 µM (inactive) and the GI50 [54] was 47.6 µM (inactive). The GI50 [55] was > 100 µM (inactive) and the GI50 [56] was 24.9 µM (inactive).

`CN(C)NC(=S)NC12CC3CC(CC(C3)C1)C2` was tested, and the GI50 [1] was > 100 µM (inactive), the GI50 [57] was > 100 µM (inactive) and the GI50 [2] was > 100 µM (inactive). The GI50 [3] was > 100 µM (inactive), the GI50 [4] was > 100 µM (inactive) and the GI50 [5] was > 100 µM (inactive). For the same molecule, the GI50 [6] was > 100 µM (inactive), the GI50 [7] was > 100 µM (inactive) and the GI50 [8] was > 100 µM (inactive). For the same molecule, the GI50 [9] was > 100 µM (inactive), the GI50 [10] was > 100 µM (inactive) and the GI50 [11] was > 100 µM (inactive). The GI50 [12] was > 100 µM (inactive), the GI50 [13] was > 100 µM and the GI50 [14] was > 100 µM (inactive). The GI50 [15] was > 100 µM (inactive), the GI50 [16] was > 100 µM (inactive) and the GI50 [17] was 91.2 µM (inactive). The GI50 [18] was > 100 µM (inactive), the GI50 [19] was > 100 µM (inactive) and the GI50 [20] was > 100 µM (inactive). For the same molecule, the GI50 [21] was > 100 µM (inactive), the GI50 [22] was > 100 µM (inactive) and the GI50 [23] was > 100 µM (inactive). For the same molecule, the GI50 [24] was > 100 µM (inactive), the GI50 [25] was > 100 µM (inactive) and the GI50 [26] was > 100 µM (inactive). For the same molecule, the GI50 [27] was > 100 µM (inactive), the GI50 [28] was > 100 µM (inactive) and the GI50 [29] was > 100 µM (inactive). For the same molecule, the GI50 [30] was > 100 µM (inactive), the GI50 [31] was > 100 µM (inactive) and the GI50 [32] was > 100 µM (inactive). For the same molecule, the GI50 [33] was > 100 µM (inactive), the GI50 [34] was > 100 µM (inactive) and the GI50 [58] was > 100 µM (inactive). The GI50 [35] was > 100 µM (inactive), the GI50 [37] was > 100 µM (inactive) and the GI50 [38] was > 100 µM (inactive). For the same molecule, the GI50 [39] was > 100 µM (inactive), the GI50 [40] was > 100 µM (inactive) and the GI50 [41] was > 100 µM (inactive). The GI50 [42] was > 100 µM (inactive), the GI50 [43] was > 100 µM (inactive) and the GI50 [44] was > 100 µM (inactive). For the same molecule, the GI50 [45] was > 100 µM (inactive), the GI50 [46] was > 100 µM (inactive) and the GI50 [47] was > 100 µM (inactive). The GI50 [48] was > 100 µM (inactive), the GI50 [50] was > 100 µM (inactive) and the GI50 [51] was > 100 µM (inactive). The GI50 [52] was > 100 µM (inactive), the GI50 [53] was > 100 µM (inactive) and the GI50 [54] was > 100 µM (inactive). For the same molecule, the GI50 [55] was > 100 µM (inactive) and the GI50 [56] was > 100 µM (inactive).

With `Cc1cc(N(CCC#N)CCC#N)ccc1/C=C1N=C(/C=C\c2ccccc2)N(c2ccc(Cl)cc2)C\1=O` the GI50 [1] was 54.8 µM (inactive), the GI50 [57] was > 100 µM (inactive) and the GI50 [2] was > 39.9 µM (inactive). For the same molecule, the GI50 [3] was 8.32 µM (inactive), the GI50 [59] was 1.49 µM (inactive) and the GI50 [4] was > 24.3 µM (inactive). For the same molecule, the GI50 [5] was 3.4 µM (inactive), the GI50 [6] was 0.745 µM (active) and the GI50 [8] was 2.13 µM (inactive). The GI50 [9] was 0.288 µM (active), the GI50 [60] was > 100 µM (inactive) and the GI50 [10] was > 100 µM (inactive). For the same molecule, the GI50 [11] was 1.81 µM (inactive), the GI50 [12] was 6.76 µM (inactive) and the GI50 [13] was 0.718 µM. For the same molecule, the GI50 [14] was 6.05 µM (inactive), the GI50 [15] was > 100 µM (inactive) and the GI50 [16] was 5.21 µM (inactive). For the same molecule, the GI50 [17] was > 95.7 µM (inactive), the GI50 [18] was 2.11 µM (inactive) and the GI50 [61] was > 100 µM (inactive). The GI50 [19] was 47.3 µM (inactive), the GI50 [20] was 0.607 µM (active) and the GI50 [22] was 4.52 µM (inactive). For the same molecule, the GI50 [23] was 1.01 µM (active), the GI50 [25] was 1.29 µM (inactive) and the GI50 [26] was 1.57 µM (inactive). For the same molecule, the GI50 [62] was 29.2 µM (inactive), the GI50 [63] was > 100 µM (inactive) and the GI50 [64] was > 100 µM (inactive). For the same molecule, the GI50 [27] was 25 µM (inactive), the GI50 [28] was 17.7 µM (inactive) and the GI50 [29] was > 100 µM (inactive). For the same molecule, the GI50 [30] was 36.6 µM (inactive), the GI50 [31] was 10.8 µM (inactive) and the GI50 [32] was 24.7 µM (inactive). For the same molecule, the GI50 [65] was > 100 µM (inactive), the GI50 [33] was 40.5 µM (inactive) and the GI50 [34] was > 39.4 µM (inactive). For the same molecule, the GI50 [58] was 22.2 µM (inactive), the GI50 [35] was > 40.8 µM (inactive) and the GI50 [66] was 0.536 µM (active). For the same molecule, the GI50 [37] was > 100 µM (inactive), the GI50 [38] was > 22 µM (inactive) and the GI50 [39] was 4.57 µM (inactive). The GI50 [40] was 6.71 µM (inactive), the GI50 [41] was 5.46 µM (inactive) and the GI50 [42] was > 54.8 µM (inactive). For the same molecule, the GI50 [43] was 0.43 µM (active), the GI50 [44] was > 87.1 µM (inactive) and the GI50 [45] was > 45 µM (inactive). The GI50 [46] was > 100 µM (inactive), the GI50 [47] was > 100 µM (inactive) and the GI50 [48] was > 100 µM (inactive). The GI50 [49] was > 100 µM (inactive), the GI50 [50] was 11.6 µM (inactive) and the GI50 [67] was > 100 µM (inactive). For the same molecule, the GI50 [51] was > 53.3 µM (inactive), the GI50 [52] was > 28.6 µM (inactive) and the GI50 [53] was > 54.6 µM (inactive). The GI50 [54] was 0.746 µM (active), the GI50 [55] was 7.36 µM (inactive) and the GI50 [56] was > 100 µM (inactive).
